The numbers were not newly measured in PMC4461526 (Bioorganic & medicinal chemistry, 2015), which cites them from elsewhere.

Data set [1] deals with T1, Human ABCC2 (Homo sapiens, UniProt Q92887). Particulars: ref 30 (Kidron et al.); for pIC50: read-out: IC50 (inhibitors of EG).
The target in data set [2] is T1, Human ABCC2. The following applies: ref 30 (Kidron et al.).

pIC50: −log10 of the molar value.

T1 sequence (Q92887 whole entry): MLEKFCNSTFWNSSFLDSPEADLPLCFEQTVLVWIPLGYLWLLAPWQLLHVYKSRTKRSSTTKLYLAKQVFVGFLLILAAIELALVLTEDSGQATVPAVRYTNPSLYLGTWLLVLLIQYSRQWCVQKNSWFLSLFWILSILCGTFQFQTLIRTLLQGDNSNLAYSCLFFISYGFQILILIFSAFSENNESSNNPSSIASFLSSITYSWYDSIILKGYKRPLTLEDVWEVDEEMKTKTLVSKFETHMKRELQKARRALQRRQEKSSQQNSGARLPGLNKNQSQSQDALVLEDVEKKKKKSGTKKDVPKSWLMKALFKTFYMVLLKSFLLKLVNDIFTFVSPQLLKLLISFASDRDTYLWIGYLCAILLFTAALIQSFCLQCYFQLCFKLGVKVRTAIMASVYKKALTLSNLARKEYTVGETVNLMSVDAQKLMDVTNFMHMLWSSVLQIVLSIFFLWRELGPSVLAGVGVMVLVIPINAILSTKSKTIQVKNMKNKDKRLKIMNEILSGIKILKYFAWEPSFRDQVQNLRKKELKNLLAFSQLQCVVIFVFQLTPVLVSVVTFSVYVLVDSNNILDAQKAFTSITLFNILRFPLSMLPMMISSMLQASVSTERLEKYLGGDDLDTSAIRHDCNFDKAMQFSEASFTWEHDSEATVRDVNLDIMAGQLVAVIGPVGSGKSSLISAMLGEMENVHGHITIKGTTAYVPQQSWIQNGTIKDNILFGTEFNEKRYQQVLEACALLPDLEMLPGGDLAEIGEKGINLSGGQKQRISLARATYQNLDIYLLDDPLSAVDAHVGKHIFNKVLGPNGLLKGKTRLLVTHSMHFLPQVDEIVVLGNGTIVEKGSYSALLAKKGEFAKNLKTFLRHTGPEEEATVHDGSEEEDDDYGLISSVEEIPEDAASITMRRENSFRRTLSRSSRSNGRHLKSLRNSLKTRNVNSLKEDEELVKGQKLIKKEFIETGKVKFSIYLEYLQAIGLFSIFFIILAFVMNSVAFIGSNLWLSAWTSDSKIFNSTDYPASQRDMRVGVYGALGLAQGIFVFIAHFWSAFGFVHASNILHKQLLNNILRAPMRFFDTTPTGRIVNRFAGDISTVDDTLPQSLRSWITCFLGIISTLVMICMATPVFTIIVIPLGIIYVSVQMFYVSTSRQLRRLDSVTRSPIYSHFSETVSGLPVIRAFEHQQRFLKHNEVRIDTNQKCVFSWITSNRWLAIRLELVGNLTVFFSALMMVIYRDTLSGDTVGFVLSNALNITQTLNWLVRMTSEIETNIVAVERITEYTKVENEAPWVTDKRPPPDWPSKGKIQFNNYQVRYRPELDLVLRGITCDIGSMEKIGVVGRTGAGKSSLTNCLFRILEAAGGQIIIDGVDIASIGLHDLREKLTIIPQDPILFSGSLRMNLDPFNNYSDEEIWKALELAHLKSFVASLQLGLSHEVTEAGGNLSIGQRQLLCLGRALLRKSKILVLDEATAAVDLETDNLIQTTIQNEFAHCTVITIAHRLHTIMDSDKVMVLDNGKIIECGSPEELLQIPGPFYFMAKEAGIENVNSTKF

On to `O=C(O)Cc1ccccc1Nc1c(Cl)cccc1Cl` [diclofenac], for which the “effect on EG transport” value in data set [1] is listed as “stimulators”.

For the compound `CSc1ccc2c(c1)N(CCC1CCCCN1C)c1ccccc1S2` (stereo not shown) [thioridazine], the pIC50 in data set [1] is 4.22 to 4.40. In addition, the “effect on CDCF transport” value in data set [2] was “stimulating”.

In the case of `C[C@]12CC[C@@H]3c4ccc(OS(=O)(=O)O)cc4CC[C@H]3[C@@H]1CCC2=O` [estrone-3-sulfate], the “effect on EG transport” value in data set [1] was “stimulators”.

As for `CCCC1O[C@@H]2C[C@H]3[C@@H]4CCC5=CC(=O)C=C[C@]5(C)[C@H]4[C@@H](O)C[C@]3(C)[C@]2(C(=O)CO)O1` (stereo partly shown) [budes-onide], the pIC50 in data set [1] is 4.22 to 4.40. In data set [2], the “effect on CDCF transport” value was “stimulating”.

`COc1ccc2c(c1)c(CC(=O)O)c(C)n2C(=O)c1ccc(Cl)cc1` [indomethacin]: the “effect on EG transport” value in data set [1] is “stimulators”.

Broadly, the pIC50 is −log10 of the IC50, conventionally taken in molar units.
